# Species: Rattus norvegicus
# Assay: DrugMatrix - Regimen: Daily Repeat
# Assay type: toxicity, organism-based, Sprague-Dawley
# Design: regimen Daily Repeat, gender Male, age 6-8 weeks
# Settings: in vivo, iv, vehicle 100 % SALINE; for ABSOLUTE BASOPHIL / ABSOLUTE EOSINOPHIL / ABSOLUTE LYMPHOCYTE / ABSOLUTE MONOCYTE / ABSOLUTE SEGMENTED NEUTROPHIL / BASOPHIL / EOSINOPHIL / ERYTHROCYTE COUNT / HEMATOCRIT / HEMOGLOBIN / LEUKOCYTE COUNT / LYMPHOCYTE / MEAN CORPUSCULAR HEMOGLOBIN / MEAN CORPUSCULAR HEMOGLOBIN CONCENTRATION / MEAN CORPUSCULAR VOLUME / MONOCYTE / NEUTROPHIL / NUCLEATED RED BLOOD CELLS / PLATELET COUNT: tissue Blood; for ALANINE AMINOTRANSFERASE / ALBUMIN / ALKALINE PHOSPHATASE / ASPARTATE AMINOTRANSFERASE / BLOOD UREA NITROGEN / CARBON DIOXIDE / CHLORIDE / CHOLESTEROL / CREATINE PHOSPHOKINASE / CREATININE / GLUCOSE / LACTATE DEHYDROGENASE / LIPASE / PHOSPHORUS / POTASSIUM / SODIUM / TOTAL BILIRUBIN / URIC ACID / TOTAL PROTEIN: tissue Plasma
# [1] = 400 mg/kg, 72 h, dose level Low, time 3 day
# [2] = 400 mg/kg, 120 h, dose level Low, time 5 day
# [3] = 1200 mg/kg, 72 h, dose level M1, time 3 day
# [4] = 1200 mg/kg, 120 h, dose level M1, time 5 day
# [5] = 1800 mg/kg, 72 h, dose level High, time 3 day
smiles,measurement,setting,value
NC(CO)(CO)CO [TROMETHAMINE],ABSOLUTE BASOPHIL,[1],0 CELLS/uL
same,ABSOLUTE EOSINOPHIL,[1],233.33 CELLS/uL
same,ABSOLUTE LYMPHOCYTE,[1],15317.33 CELLS/uL
same,ABSOLUTE MONOCYTE,[1],347.33 CELLS/uL
same,ABSOLUTE SEGMENTED NEUTROPHIL,[1],1468.67 CELLS/uL
same,BASOPHIL,[1],0%
same,EOSINOPHIL,[1],1.33%
same,ERYTHROCYTE COUNT,[1],5.74 x10E6/uL
same,HEMATOCRIT,[1],36.9%
same,HEMOGLOBIN,[1],13.67 G/DL
same,LEUKOCYTE COUNT,[1],17.37 x10E3/uL
same,LYMPHOCYTE,[1],88.33%
same,MEAN CORPUSCULAR HEMOGLOBIN,[1],23.87 pg
same,MEAN CORPUSCULAR HEMOGLOBIN CONCENTRATION,[1],37.03 G/DL
same,MEAN CORPUSCULAR VOLUME,[1],64.37 fL
same,MONOCYTE,[1],2%
same,NEUTROPHIL,[1],8.33%
same,NUCLEATED RED BLOOD CELLS,[1],0 /100WBC
same,PLATELET COUNT,[1],1402.67 x10E3/uL
same,ALANINE AMINOTRANSFERASE,[1],55.67 u/L
same,ALBUMIN,[1],4.27 G/DL
same,ALKALINE PHOSPHATASE,[1],354.33 u/L
same,ASPARTATE AMINOTRANSFERASE,[1],97 u/L
same,BLOOD UREA NITROGEN,[1],17.67 mg/dL
same,CARBON DIOXIDE,[1],20 mmol/L
same,CHLORIDE,[1],107 MEQ/L
same,CHOLESTEROL,[1],81.67 mg/dL
same,CREATINE PHOSPHOKINASE,[1],249.33 u/L
same,CREATININE,[1],0.23 mg/dL
same,GLUCOSE,[1],184.67 mg/dL
same,LACTATE DEHYDROGENASE,[1],286.33 u/L
same,LIPASE,[1],9.33 u/L
same,PHOSPHORUS,[1],14.23 mg/dL
same,POTASSIUM,[1],7.13 MEQ/L
same,SODIUM,[1],150.03 MEQ/L
same,TOTAL BILIRUBIN,[1],0.23 mg/dL
same,URIC ACID,[1],2.83 mg/dL
same,ABSOLUTE BASOPHIL,[2],0 CELLS/uL
same,ABSOLUTE EOSINOPHIL,[2],193.67 CELLS/uL
same,ABSOLUTE LYMPHOCYTE,[2],13973.67 CELLS/uL
same,ABSOLUTE MONOCYTE,[2],314 CELLS/uL
same,ABSOLUTE SEGMENTED NEUTROPHIL,[2],1218.67 CELLS/uL
same,BASOPHIL,[2],0%
same,EOSINOPHIL,[2],1.33%
same,ERYTHROCYTE COUNT,[2],5.88 x10E6/uL
same,HEMATOCRIT,[2],36.53%
same,HEMOGLOBIN,[2],13.73 G/DL
same,LEUKOCYTE COUNT,[2],15.7 x10E3/uL
same,LYMPHOCYTE,[2],89%
same,MEAN CORPUSCULAR HEMOGLOBIN,[2],23.33 pg
same,MEAN CORPUSCULAR HEMOGLOBIN CONCENTRATION,[2],37.6 G/DL
same,MEAN CORPUSCULAR VOLUME,[2],62.13 fL
same,MONOCYTE,[2],2%
same,NEUTROPHIL,[2],7.67%
same,NUCLEATED RED BLOOD CELLS,[2],0 /100WBC
same,PLATELET COUNT,[2],1369.33 x10E3/uL
same,ALANINE AMINOTRANSFERASE,[2],59 u/L
same,ALBUMIN,[2],4.13 G/DL
same,ALKALINE PHOSPHATASE,[2],352 u/L
same,ASPARTATE AMINOTRANSFERASE,[2],100.33 u/L
same,BLOOD UREA NITROGEN,[2],18 mg/dL
same,CARBON DIOXIDE,[2],26.67 mmol/L
same,CHLORIDE,[2],105 MEQ/L
same,CHOLESTEROL,[2],63.33 mg/dL
same,CREATINE PHOSPHOKINASE,[2],312.67 u/L
same,CREATININE,[2],0.17 mg/dL
same,GLUCOSE,[2],152 mg/dL
same,LACTATE DEHYDROGENASE,[2],490 u/L
same,LIPASE,[2],8 u/L
same,PHOSPHORUS,[2],13.27 mg/dL
same,POTASSIUM,[2],6.29 MEQ/L
same,SODIUM,[2],147.27 MEQ/L
same,TOTAL BILIRUBIN,[2],0.13 mg/dL
same,TOTAL PROTEIN,[2],6.23 G/DL
same,URIC ACID,[2],1.6 mg/dL
same,ABSOLUTE BASOPHIL,[3],0 CELLS/uL
same,ABSOLUTE EOSINOPHIL,[3],114.67 CELLS/uL
same,ABSOLUTE LYMPHOCYTE,[3],5662 CELLS/uL
same,ABSOLUTE MONOCYTE,[3],0 CELLS/uL
same,ABSOLUTE SEGMENTED NEUTROPHIL,[3],823.33 CELLS/uL
same,BASOPHIL,[3],0%
same,EOSINOPHIL,[3],1.67%
same,ERYTHROCYTE COUNT,[3],4.96 x10E6/uL
same,HEMATOCRIT,[3],32.13%
same,HEMOGLOBIN,[3],12.23 G/DL
same,LEUKOCYTE COUNT,[3],6.6 x10E3/uL
same,LYMPHOCYTE,[3],86%
same,MEAN CORPUSCULAR HEMOGLOBIN,[3],24.7 pg
same,MEAN CORPUSCULAR HEMOGLOBIN CONCENTRATION,[3],38.17 G/DL
same,MEAN CORPUSCULAR VOLUME,[3],64.73 fL
same,MONOCYTE,[3],0%
same,NEUTROPHIL,[3],12.33%
same,NUCLEATED RED BLOOD CELLS,[3],0 /100WBC
same,PLATELET COUNT,[3],1106 x10E3/uL
same,ALANINE AMINOTRANSFERASE,[3],48.67 u/L
same,ALBUMIN,[3],4.2 G/DL
same,ALKALINE PHOSPHATASE,[3],396.33 u/L
same,ASPARTATE AMINOTRANSFERASE,[3],124 u/L
same,BLOOD UREA NITROGEN,[3],14.67 mg/dL
same,CARBON DIOXIDE,[3],28 mmol/L
same,CHLORIDE,[3],101.67 MEQ/L
same,CHOLESTEROL,[3],82 mg/dL
same,CREATINE PHOSPHOKINASE,[3],177.33 u/L
same,CREATININE,[3],0.16 mg/dL
same,GLUCOSE,[3],166.33 mg/dL
same,LACTATE DEHYDROGENASE,[3],103 u/L
same,LIPASE,[3],8.33 u/L
same,PHOSPHORUS,[3],11.1 mg/dL
same,POTASSIUM,[3],5.72 MEQ/L
same,SODIUM,[3],148.3 MEQ/L
same,TOTAL BILIRUBIN,[3],0.1 mg/dL
same,TOTAL PROTEIN,[3],6.23 G/DL
same,URIC ACID,[3],0.7 mg/dL
same,ABSOLUTE BASOPHIL,[4],0 CELLS/uL
same,ABSOLUTE EOSINOPHIL,[4],321 CELLS/uL
same,ABSOLUTE LYMPHOCYTE,[4],13922 CELLS/uL
same,ABSOLUTE MONOCYTE,[4],0 CELLS/uL
same,ABSOLUTE SEGMENTED NEUTROPHIL,[4],2357 CELLS/uL
same,BASOPHIL,[4],0%
same,EOSINOPHIL,[4],2%
same,ERYTHROCYTE COUNT,[4],5.71 x10E6/uL
same,HEMATOCRIT,[4],35.9%
same,HEMOGLOBIN,[4],13.45 G/DL
same,LEUKOCYTE COUNT,[4],16.6 x10E3/uL
same,LYMPHOCYTE,[4],84%
same,MEAN CORPUSCULAR HEMOGLOBIN,[4],23.6 pg
same,MEAN CORPUSCULAR HEMOGLOBIN CONCENTRATION,[4],37.45 G/DL
same,MEAN CORPUSCULAR VOLUME,[4],62.95 fL
same,MONOCYTE,[4],0%
same,NEUTROPHIL,[4],14%
same,NUCLEATED RED BLOOD CELLS,[4],0 /100WBC
same,PLATELET COUNT,[4],1326 x10E3/uL
same,ALANINE AMINOTRANSFERASE,[4],51.5 u/L
same,ALBUMIN,[4],4.3 G/DL
same,ALKALINE PHOSPHATASE,[4],460.5 u/L
same,ASPARTATE AMINOTRANSFERASE,[4],147 u/L
same,BLOOD UREA NITROGEN,[4],19.5 mg/dL
same,CARBON DIOXIDE,[4],26.5 mmol/L
same,CHLORIDE,[4],105.5 MEQ/L
same,CHOLESTEROL,[4],61.5 mg/dL
same,CREATINE PHOSPHOKINASE,[4],173 u/L
same,CREATININE,[4],0.2 mg/dL
same,GLUCOSE,[4],161 mg/dL
same,LACTATE DEHYDROGENASE,[4],131.5 u/L
same,LIPASE,[4],7.5 u/L
same,PHOSPHORUS,[4],12.6 mg/dL
same,POTASSIUM,[4],5.85 MEQ/L
same,SODIUM,[4],148.4 MEQ/L
same,TOTAL BILIRUBIN,[4],0.15 mg/dL
same,TOTAL PROTEIN,[4],6.15 G/DL
same,URIC ACID,[4],1.35 mg/dL
same,ABSOLUTE BASOPHIL,[5],0 CELLS/uL
same,ABSOLUTE EOSINOPHIL,[5],0 CELLS/uL
same,ABSOLUTE LYMPHOCYTE,[5],11188.5 CELLS/uL
same,ABSOLUTE MONOCYTE,[5],305.5 CELLS/uL
same,ABSOLUTE SEGMENTED NEUTROPHIL,[5],3356 CELLS/uL
same,BASOPHIL,[5],0%
same,EOSINOPHIL,[5],0%
same,ERYTHROCYTE COUNT,[5],5.2 x10E6/uL
same,HEMATOCRIT,[5],31.8%
same,HEMOGLOBIN,[5],12.25 G/DL
same,LEUKOCYTE COUNT,[5],14.85 x10E3/uL
same,LYMPHOCYTE,[5],75%
same,MEAN CORPUSCULAR HEMOGLOBIN,[5],23.65 pg
same,MEAN CORPUSCULAR HEMOGLOBIN CONCENTRATION,[5],38.5 G/DL
same,MEAN CORPUSCULAR VOLUME,[5],61.4 fL
same,MONOCYTE,[5],2%
same,NEUTROPHIL,[5],23%
same,NUCLEATED RED BLOOD CELLS,[5],0 /100WBC
same,PLATELET COUNT,[5],1215.5 x10E3/uL
same,ALANINE AMINOTRANSFERASE,[5],64.5 u/L
same,ALBUMIN,[5],4.05 G/DL
same,ALKALINE PHOSPHATASE,[5],290 u/L
same,ASPARTATE AMINOTRANSFERASE,[5],190 u/L
same,BLOOD UREA NITROGEN,[5],19.5 mg/dL
same,CARBON DIOXIDE,[5],24.5 mmol/L
same,CHLORIDE,[5],105.5 MEQ/L
same,CHOLESTEROL,[5],107 mg/dL
same,CREATINE PHOSPHOKINASE,[5],336.5 u/L
same,CREATININE,[5],0.22 mg/dL
same,GLUCOSE,[5],149.5 mg/dL
same,LACTATE DEHYDROGENASE,[5],446 u/L
same,LIPASE,[5],8.5 u/L
same,PHOSPHORUS,[5],13.45 mg/dL
same,POTASSIUM,[5],6.05 MEQ/L
same,SODIUM,[5],147.25 MEQ/L
same,TOTAL BILIRUBIN,[5],0.2 mg/dL
same,TOTAL PROTEIN,[5],6.15 G/DL
same,URIC ACID,[5],0.95 mg/dL

# — ChEMBL document CHEMBL3885881, “DrugMatrix”
